Results taken from the supplement of paper PMC10307832.

Legend:
Experiment in all cases: relative viability (nuclei count vs DMSO), 5 days (fraction); higher = more cells survive
XMD13-2 + Trametinib = compound: C1CC1C(=O)NC2=NNC3=C2C=CC(=C3)C4=CC(=CC=C4)C(=O)NC5CC5 [XMD13-2] + CC(=O)Nc1cccc(-n2c(=O)n(C3CC3)c(=O)c3c(Nc4ccc(I)cc4F)n(C)c(=O)c(C)c32)c1 [Trametinib] (partner 0.02 µM)
How it was run: (§1)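 Relative viability was taken as the ratio of nuclei in treated wells to nuclei in vehicle wells. Lung cancer cell lines in 1536-well plates received compounds by pin tool one day after seeding, either one drug alone or a fixed anchor-drug dose plus five library-drug doses (not always all listed) in √10 steps. Nuclei were counted on 4× images after 5 days of treatment, and values are medians of duplicate plates.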

ALW-II-49-7 + Bortezomib = compound: Cc1ccc(C(=O)Nc2cccc(C(F)(F)F)c2)cc1Nc1cncc(C(N)=O)c1 [ALW-II-49-7] + CC(C)C[C@H](NC(=O)[C@H](Cc1ccccc1)NC(=O)c1cnccn1)B(O)O [Bortezomib] (partner 0.002 µM)
How it was run: as §1

ALW-II-49-7 + Tozasertib = compound: Cc1ccc(C(=O)Nc2cccc(C(F)(F)F)c2)cc1Nc1cncc(C(N)=O)c1 [ALW-II-49-7] + Cc1cc(Nc2cc(N3CCN(C)CC3)nc(Sc3ccc(NC(=O)C4CC4)cc3)n2)n[nH]1 [Tozasertib] (partner 0.1 µM)
How it was run: as §1

Dasatinib + Bortezomib = compound: Cc1nc(Nc2ncc(C(=O)Nc3c(C)cccc3Cl)s2)cc(N2CCN(CCO)CC2)n1 [Dasatinib] + CC(C)C[C@H](NC(=O)[C@H](Cc1ccccc1)NC(=O)c1cnccn1)B(O)O [Bortezomib] (partner 0.002 µM)
How it was run: as §1

Row | Cell Line | relative viability (XMD13-2 + Trametinib; first compound 0.05 µM) | relative viability (XMD13-2 + Trametinib; first compound 0.1581 µM) | relative viability (XMD13-2 + Trametinib; first compound 0.5 µM) | relative viability (XMD13-2 + Trametinib; first compound 1.581 µM) | relative viability (XMD13-2 + Trametinib; first compound 5 µM) | relative viability (ALW-II-49-7 + Bortezomib; first compound 0.08 µM) | relative viability (ALW-II-49-7 + Bortezomib; first compound 0.253 µM) | relative viability (ALW-II-49-7 + Bortezomib; first compound 0.8 µM) | relative viability (ALW-II-49-7 + Bortezomib; first compound 2.53 µM) | relative viability (ALW-II-49-7 + Bortezomib; first compound 8 µM) | relative viability (ALW-II-49-7 + Tozasertib; first compound 0.08 µM) | relative viability (ALW-II-49-7 + Tozasertib; first compound 0.253 µM) | relative viability (ALW-II-49-7 + Tozasertib; first compound 0.8 µM) | relative viability (ALW-II-49-7 + Tozasertib; first compound 2.53 µM) | relative viability (ALW-II-49-7 + Tozasertib; first compound 8 µM) | relative viability (Dasatinib + Bortezomib; first compound 0.005 µM) | relative viability (Dasatinib + Bortezomib; first compound 0.01581 µM) | relative viability (Dasatinib + Bortezomib; first compound 0.05 µM) | relative viability (Dasatinib + Bortezomib; first compound 0.1581 µM) | relative viability (Dasatinib + Bortezomib; first compound 0.5 µM)
1 | NCI-H596 | 0.826 | 0.857 | 0.965 | 0.954 | 0.798 | 0.672 | 0.99 | 1.18 | 1 | 0.953 | 1.02 | 0.939 | 0.92 | 0.782 | 1.14 | 0.928 | 0.815 | 0.826 | 0.525 | 0.515
2 | NCI-H1437 | 0.598 | 0.49 | 0.482 | 0.498 | 0.417 | 0.597 | 0.478 |  | 0.436 | 0.5 | 0.35 | 0.387 | 0.383 | 0.41 | 0.391 | 0.509 | 0.363 | 0.469 | 0.487 | 0.138
3 | NCI-H727 | 0.401 | 0.431 | 0.37 | 0.382 | 0.38 | 0.678 | 1.09 | 0.67 | 0.895 | 0.787 | 0.599 | 0.647 | 0.642 | 0.687 | 0.538 | 0.606 | 0.663 | 0.554 | 0.463 | 0.258
4 | PC-3 [JPC-3] | 0.681 | 0.721 | 0.737 |  | 0.778 | 0.746 | 0.777 | 0.758 | 0.862 | 0.825 | 0.653 | 0.946 | 0.867 | 0.776 | 0.843 | 0.839 | 0.733 | 0.925 | 0.818 | 0.465
5 | SW 1573 | 0.585 | 0.53 | 0.674 | 0.533 | 0.536 | 1.01 | 0.983 | 1.14 | 1.01 | 0.959 | 0.187 | 0.248 | 0.186 | 0.196 | 0.151 | 0.875 | 0.881 | 0.861 | 0.618 | 0.395
6 | NCI-H2228 | 0.672 | 0.577 | 0.517 | 0.602 | 0.634 | 1.06 | 0.636 | 0.975 | 0.915 | 1.16 | 0.261 | 0.263 | 0.277 | 0.171 | 0.22 | 0.645 | 0.988 | 0.888 | 0.691 | 0.47
7 | NCI-H1650 | 0.852 | 0.663 | 0.65 | 0.526 | 0.695 | 0.203 | 0.218 | 0.218 | 0.198 | 0.206 | 0.364 | 0.437 | 0.374 | 0.313 | 0.293 | 0.227 | 0.195 | 0.193 | 0.217 | 0.2
8 | NCI-H358 | 0.128 | 0.127 | 0.132 | 0.13 | 0.135 |  |  |  |  |  | 0.0887 | 0.107 | 0.11 | 0.0927 | 0.085 |  |  |  |  | 
9 | NCI-H1792 | 0.549 | 0.454 | 0.475 | 0.509 | 0.507 | 0.745 | 0.878 | 0.82 | 0.922 | 0.95 |  |  |  |  |  | 0.932 | 0.897 | 0.898 | 0.681 | 0.505
10 | Calu-6 |  |  |  |  |  | 1.18 | 0.95 | 1.04 | 0.785 | 0.885 |  |  |  |  |  | 0.869 | 0.855 | 0.746 | 0.642 | 0.513
11 | NCI-H1395 | 1.05 | 1.01 | 1.06 | 0.966 | 1.04 |  |  |  |  |  | 0.746 | 0.825 | 0.736 | 0.779 | 0.631 |  |  |  |  | 
12 | NCI-H1623 |  |  |  |  |  |  |  |  |  |  | 0.339 | 0.402 | 0.395 | 0.396 | 0.579 |  |  |  |  | 
13 | LK-2 | 1.1 | 0.785 | 0.779 | 0.583 | 0.571 |  |  |  |  |  |  | 0.191 | 0.2 | 0.175 | 0.151 |  |  |  |  | 
14 | NCI-H1299 |  |  |  |  |  | 1.03 | 1.02 | 1.02 | 0.98 | 0.853 |  |  |  |  |  | 1.04 | 1.02 | 1.14 | 0.612 | 0.485
15 | NCI-H1703 |  |  |  |  |  | 0.287 | 0.348 | 0.298 | 0.278 | 0.167 |  |  |  |  |  | 0.285 | 0.22 | 0.247 | 0.18 | 0.121
16 | NCI-H522 | 0.852 | 0.688 | 0.82 | 0.711 | 0.759 |  |  |  |  |  | 0.622 | 0.499 | 0.554 | 0.507 | 0.647 |  |  |  |  | 
17 | NCI-H1793 | 0.524 | 0.442 | 0.407 | 0.432 | 0.444 |  |  |  |  |  | 0.366 | 0.301 | 0.338 | 0.296 | 0.321 |  |  |  |  | 
18 | ABC-1 |  |  |  |  |  | 0.414 | 0.34 | 0.31 | 0.318 | 0.287 | 0.172 | 0.179 | 0.162 | 0.197 | 0.191 | 0.295 | 0.303 | 0.247 | 0.269 | 0.351
19 | IA-LM |  |  |  |  |  | 1.12 | 0.621 | 0.509 | 0.217 | 0.161 |  |  |  |  |  | 1.14 | 0.882 | 1.03 | 0.766 | 0.615
20 | SW 900 | 0.924 | 0.943 | 0.993 | 0.859 | 0.881 |  |  |  |  |  | 0.573 | 0.568 | 0.479 | 0.279 | 0.377 |  |  |  |  | 
21 | NCI-H1563 |  |  |  |  |  | 0.922 | 0.885 | 0.877 | 0.842 | 0.753 |  |  |  |  |  | 0.703 | 0.607 | 0.632 | 0.647 | 0.562
22 | NCI-H2342 | 0.766 | 0.917 | 0.697 | 0.912 | 0.822 |  |  |  |  |  | 0.437 | 0.409 | 0.478 | 0.496 | 0.436 |  |  |  |  | 
23 | NCI-H1944 | 0.486 | 0.393 | 0.429 | 0.458 | 0.411 |  |  |  |  |  | 0.234 | 0.249 | 0.251 | 0.246 | 0.254 |  |  |  |  | 
